Data set [1] concerns rat liver microsomes.
Data set [2] relates to rat liver microsomes. The experiment in a line: Inhibition of lipid peroxidation (LPO) initiated by tert-butoxyl radicals in rat liver microsomes, TBA test for MDA (Example 1). The following applies: for relative efficiency normalized to 1.0 for PBN: from IC50 data of Example 1; for IC50: read-out: Inhibitor Concentration of 50% Inhibition (IC50), RLM (I), LPO initiated by tert-butoxyl radicals, 37° C., one hour, pH 7.4, average of 5 experiments, interpolated, estimated or measured.

Data set [3] deals with rat brain microsomes. The experiment in a line: Inhibition of LPO in rat brain microsomes, TBA test for MDA production (Example 3). In kind it is biochemical. The following applies: for IC50: rat brain microsomes; for inhibition of LPO in these systems: conclusion in words on the data obtained. The procedure: Similar tests were performed with rat brain microsomes using the TBA test for MDA production as the result of LPO.

Data set [4] deals with rat liver microsomes. As to conditions: read-out: Inhibitor Concentration of 50% Inhibition (IC50); RLM (II); LPO initiated by NADPH/cytochrome-P450 metabolism of CCl4; average of 5 experiments; interpolated.
The mark [5] stands for this setting: value in parentheses, read-out: IC50 RBM (III).

SMILES strings stand for the structures. Like-named read-outs stand apart in the source and are kept apart here.

Take `Cc1cc(C(C)(C)C)c(O)c(C(C)(C)C)c1` [BHT, butylated hydroxy toulene, reference compound]: the IC50 in data set [1] was 55 µM; in data set [2] it was 5.3 µM. For the same molecule, the “relative efficiency normalized to 1.0 for PBN” value (“relative efficiency normalized” for short) in data set [2] (rat liver microsomes) came out at 2000.
For the molecule `CC(C)(C)c1cc(C=[N+]([O-])C(C)(C)C)cc(C(C)(C)C)c1O` [DBBNP, 2,6-di-tert-butyl-4-(N-tert-butyl) nitronyl phenol], the “effectiveness as inhibitor of LPO compared with BHT” value in data set [2] (conclusion in words, taking into account experimental precision) was “at least as good as BHT and probably better”. In addition, the “relative efficiency normalized” value in data set [2] (rat liver microsomes) amounted to 2466. In addition, the “better than BHT as an inhibitor of LPO” value in data set [2] (rat liver microsomes, versus BHT) was “about 20%”. Besides, the “times more effective as an inhibitor of LPO than PBN” value in data set [2] (rat liver microsomes, versus PBN) is given as “about 2000 times”. Further, the IC50 in data set [2] was 4.3 µM; in data set [3] (RBM (III), TBA test for MDA), 0.7 µM; in data set [3] (setting [5]) it was 0.7 µM; in data set [4], 53 µM. The “inhibition of LPO in these systems” value in data set [3] was “very good inhibitors”.
`CC(C)(C)CC(C)(C)[N+]([O-])=Cc1cc(C(C)(C)C)c(O)c(C(C)(C)C)c1` [DBONP, 2,6-di-tert-butyl-4-(N-tert-octyl) nitronyl phenol]: the “relative efficiency normalized” value in data set [2] (rat liver microsomes) is given as 1828. Further, the IC50 in data set [2] was 5.8 µM; in data set [3] (RBM (III), TBA test for MDA) it was 0.3 µM; in data set [3] (setting [5]) it was 0.3 µM; in data set [4], 35 µM. Moreover, the “inhibition of LPO in these systems” value in data set [3] was “very good inhibitors”.
On to `Cc1cc(C=[N+]([O-])C(C)(C)C)cc(C)c1O` [DMBNP, 2,6-dimethyl-4-(N-tert-butyl) nitronyl phenol], for which the “relative efficiency normalized” value in data set [2] (rat liver microsomes) is 46. Besides, the IC50 in data set [2] is 230 µM; in data set [3] (RBM (III), TBA test for MDA), 600 µM; in data set [4], 710 µM.
Turning to `Cc1cc(C=[N+]([O-])C(C)(C)CC(C)(C)C)cc(C)c1O` [DMONP, 2,6-dimethyl-4-(N-tert-octyl) nitronyl phenol], the “relative efficiency normalized” value in data set [2] (rat liver microsomes) was found to be 646. Moreover, the IC50 in data set [2] is 16.4 µM; in data set [3] (RBM (III), TBA test for MDA), 70 µM; in data set [4], 60 µM.
The like results for `CC(C)(C)CC(C)(C)[N+]([O-])=Cc1ccccc1` [OPN, N-tert-octyl C-phenyl nitrone] were, in that order, 24, 462 µM, 76 µM and 6500 µM.
With `CC(C)(C)[N+]([O-])=Cc1ccccc1` [PBN, α-phenyl t-butyl nitrone, reference compound], in data set [2] (rat liver microsomes), the “relative efficiency normalized” value was found to be 1.0. The IC50 in data set [2] is 9800 µM; in data set [3] (RBM (III), TBA test for MDA), 1000 µM; in data set [4], 17500 µM.
As for `Cc1c(C)c2c(c(C)c1O)CCC(C)(CCCC(C)CCCC(C)CCCC(C)C)O2` (stereo not drawn) [Tocopherol, α-tocopherol, reference compound], in data set [2] (rat liver microsomes), the “relative efficiency normalized” value came to 354. In addition, the IC50 in data set [2] was 30 µM.

The record behind these values is US5527828A, “Spin trap nitronyl hindered phenols” (priority 1995, dated 1996).
